Literature values in patent US7939721B2, “Cropping systems for managing weeds” (Monsanto Technology LLC, priority 2006, dated 2011).
Like-named read-outs stand apart in the source and are kept apart here.

Tested on: soybean plants transformed with dicamba monooxygenase (DMO)-encoding polynucleotide constructs
Settings: cited from earlier work

What does the source list for `COc1c(Cl)ccc(Cl)c1C(=O)O` [dicamba, 3,6-dichloro-o-anisic acid]?
injury (18× application rate of 10,080 g/ha (9 lb/acre)): less than 20%; injury (approximately 2× rate of application of 1122 g/ha): less than 2%; injury (early pre-emergence application, 9× the labeled application rate (5,040 g/ha, 4.5 lb/acre)): less than 10%
